In patent US20140303188A1, “Substituted Cyclopenta Pyrimidine Bicyclic Compounds Having Antitmitotic And/Or Antitumor Activity And Methods Of Use Thereof” (DUQUESNE UNIVERSITY OF THE HOLY SPIRIT, priority 2008, published 2014):
Where a name gives a salt, the structure may show the parent alone. Read-outs that look alike come from different tables or passages of the source. One block for each compound: values may come before it.

Key:
tubulin = experiment: antitubulin activities; assay type: cell-based; conditions: for IC50: read-out: IC50 (antitubulin agent)
Text: Compounds 1, 2 are cyclopenta pyrimidine compounds. Their antitubulin activities are set forth above. […] The structural differences between Compounds 1 and 2 lead to several pharmacological ramifications. Among them, the conformation of aniline rings maybe a pivotal factor that results in the affinity difference. In order to validate this, we set forth a preferred representative series of N-methyl-N-methoxynaphthyl cyclopenta[d]pyrimidin-4-amine (4) based on the high potent antibulin agent 3 (IC50=7.0 nM). All these preferred representative methoxynaphthyl substituted bicyclic compounds of this invention have the same function groups and molecular weight, similar Log D.

[1] = tested on: MDA-MB-435 tumor cell line; experiment: inhibition of proliferation, sulforhodamine B assay; assay type: cell-based; conditions: read-out: IC50 ± SD (MDA-MB-435) Tumor cells
Experimental: (§1) However, the reverse orientation of methoxy and methylamino on the naphthyl, compound 11, has no microtubule depolymerization inhibitory activity up to 10 000 nM.

A-10 cells = experiment: cell-based phenotypic screen of microtubule disrupting effects; parameters: species or system rat; conditions: read-out: EC50 in A-10 cells (Tubulin depolymerization inhibitory acitivity)
Experimental: as §1

Wild type HeLa = experiment: antiproliferative activity, isogenic HeLa pair, wild type; assay type: cell-based; conditions: read-out: IC50 ± SD Wild type HeLa
Text: (§2) One mechanism of drug resistance that can lead to chemotherapy failure with tubulin targeting agents is the expression of the βIII isotype of tubulin.

[2] = tested on: β-III Overexpressing HeLa; experiment: antiproliferative activity, isogenic HeLa pair, βIII tubulin; assay type: cell-based; conditions: for Rr: HeLa cell line pair, wild type and βIII tubulin; for IC50: read-out: IC50 ± SD β-III Overexpressing HeLa
Text: as §2

[3] = tested on: MDA MB 435, SKOV3, SKOV3M6/6; experiment: cytotoxicity towards panel of human cell lines
Experimental: (§3) Antimitotic compounds AAG1, AAG7, AAG12, AAG16, AAG20, and AAG26, Taxol®, and combrestastatinA4, were evaluated for cytotoxity towards the panel of human cell lines MDA MB 435 (human breast cancer), SKOV3 (human ovarian cancer), and SKOV3M6/6 (Pgp infected human ovarian cancer). […] The IC50 is the inhibitory concentration required to effectuate fifty percent inhibition of cell growth.

[4] = tested on: SKOV3M6/6 (Pgp infected human ovarian cancer); experiment: cytotoxicity towards Pgp infected ovarian cancer cell line; conditions: for IC50: Homo sapiens; for calculated relative resistance value: SKOV3M6/6 versus SKOV3, FIG. 4
Experimental: as §3

[5] = tested on: A-10 rat smooth muscle cell line; experiment: microtubule depolymerization immunofluorescence assay; assay type: cell-based; conditions: 24 h; 250 nM AAG1, 500 nM AAG7, 40 nM AAG16
Experimental: A-10 rat smooth muscle cells were used since they grow as flat monolayers that are amenable to imaging. The A-10 cells were treated for twenty four (24) hours (h) with EtOH (control), 250 nM (nanomolar) AAG1, 500 nM AAG7, or 40 nM AAG16, respectively. Microtubules were then visualized by indirect immunofluorescence staining with beta-tubulin antibodies. […] Each of the compounds AAG1, AAG7, and AAG16 has potent nanomolar tubulin inhibitory activity. Compounds of the present invention having the structural Formulas III and IV, as set forth herein, inhibit the microtubule dynamics. The inhibition of microtubule dynamics hinders microtubule formation and results in mitotic arrest and initiation of apoptosis or programmed cell death.

NCI 55 human tumor lines = NCI 55 human tumor lines in vitro screen; assay type: cell-based; conditions: all 55 tumor cell lines
Text: FIGS. 5a and 5b show the results of testing compound AAG1 of the present invention using National cancer Institute (NCl) 55 human tumor lines. The cells lines, which represent leukemia, non-small cell lung cancer, colon cancer, central nervous system cancer, melanoma, ovarian cancer, renal cancer, prostate cancer, and breast cancer, are listed in FIG. 5. Testing was in accordance with the NCI Developmental Therapeutics Program (DTP) In Vitro Cell Line Screening Project (IVCLSP). Methodology for testing under IVCLSP is provided at http://dtp.nci.gov/branches/btb/ivclsp.html.
GI50 is the concentration of chemical required to reduce the growth of treated cells to half that of untreated cells (i.e. control). GI50 represents the concentration of chemical required to effectuate fifty percent inhibition of cell growth.

[6] = tested on: MDA MB 435 human breast cancer; experiment: flow cytometric analysis of cell cycle phase distribution; assay type: cell-based; conditions: treatment for twenty four hours
purified tubulin = experiment: inhibition of tubulin assembly; assay type: biochemical; conditions: read-out: Inhibition of tubulin assembly IC50 ± SD
Experimental: The effects of designed compounds 10-14 on the polymerization of purified tubulin were evaluated. This allows for the study of the direct interaction of the compounds with their intracellular target. The ability of these compounds to bind to the colchicine site on tubulin was evaluated by measuring inhibition of [^3H]colchicine binding to tubulin. […] It is therefore likely that 13 binds in the colchicine site.

[7] = tested on: colchicine site on tubulin; experiment: inhibition of [3H]colchicine binding to tubulin; conditions: 1 μM inhibitor
Experimental: This allows for the study of the direct interaction of the compounds with their intracellular target. The ability of these compounds to bind to the colchicine site on tubulin was evaluated by measuring inhibition of [^3H]colchicine binding to tubulin.

[8] = Homo sapiens, MDA-MB-435, MDA-MB-435

IC50 (tubulin): 7 nM
IC50 [1, 8]: 7 ± 0.7 nM
Compound: COc1ccc(N(C)c2nc(C)nc3c2CCC3)cc1 [Compound 3]

EC50 (A-10 cells; Rattus norvegicus, A10): > 10000 nM
Compound: COc1ccc2c(N(C)c3ncnc4c3CCC4)cccc2c1 [Compound 10]

Compound: COc1ccc(N(C)c2nc(C)nc3c2CC(C)C3)cc1 (centres unmarked) (as salt: chloride) [AAG26, N-(4-Methoxyphenyl)-N,2,6-trimethyl-6,7-dihydro-5H-cyclopenta[d]pyrimidin-4-aminium chloride]
melting point: 196 to 198 °C

IC50 (Wild type HeLa; Homo sapiens, HeLa): 4 ± 2 nM
IC50 ([2]; Homo sapiens, HeLa): 13 ± 4 nM
Compound: CC(=O)O[C@@]12CO[C@@H]1C[C@H](O)[C@@]1(C)C(=O)[C@H](O)C3=C(C)[C@@H](OC(=O)[C@H](O)[C@@H](NC(=O)OC(C)(C)C)c4ccccc4)C[C@@](O)([C@@H](OC(=O)c4ccccc4)[C@H]21)C3(C)C [Docetaxel, docetaxel, reference compound]
Rr [2]: 0.31

Compound: COc1ccc(N(C)c2nc(C)nc3c2CC(C)C3)cc1 (centres unmarked) [AAG26, N-(4-Methoxyphenyl)-N,2,6-trimethyl-6,7-dihydro-5H-cyclopenta[d]pyrimidin-4-aminium chloride]
cytotoxic activity toward each of the human cancer cell lines tested ([3]; MDA MB 435, SKOV3, SKOV3M6/6): have cytotoxic activity
IC50 [4]: 3.2 nM

IC50 (Wild type HeLa; Homo sapiens, HeLa): 5.3 ± 2 nM
IC50 ([2]; Homo sapiens, HeLa): 16 ± 1 nM
Compound: CC(=O)O[C@H]1C(=O)[C@@]2(C)[C@H]([C@H](OC(=O)c3ccccc3)[C@]3(O)C[C@H](OC(=O)[C@H](O)[C@@H](NC(=O)c4ccccc4)c4ccccc4)C(C)=C1C3(C)C)[C@]1(OC(C)=O)CO[C@@H]1C[C@@H]2O [Paclitaxel, paclitaxel, reference compound]
IC50 [4]: 4400 nM
calculated relative resistance value [4]: 2013
Rr [2]: 0.33

Compound: COc1ccc(Nc2nc(C)nc3c2CC(C)C3)cc1 (centres unmarked) [Compound 1]
antitubulin activity in words (tubulin): almost inactive

Compound: COc1ccc(N(C)c2nc(N)nc3c2CC(C)C3)cc1 (centres unmarked) [AAG7, N^4-(4-Methoxyphenyl)-N^4,6-dimethyl-6,7-dihydro-5H-cyclopenta[d]pyrimidine-2,4-diamine]
cytotoxic activity toward each of the human cancer cell lines tested ([3]; MDA MB 435, SKOV3, SKOV3M6/6): have cytotoxic activity
effect on microtubules (immunofluorescence, beta-tubulin antibodies) [5]: caused losses of microtubules

Compound: COc1ccc(N(C)c2nc(C)nc3oc(C)cc23)cc1 [AAG1, N-(4-methoxyphenyl)-N,2,6-trimethylfuro[2,3-d]pyrimidin-4-amine]
cytotoxic activity toward each of the human cancer cell lines tested ([3]; MDA MB 435, SKOV3, SKOV3M6/6): have cytotoxic activity
IC50 [4]: 171 nM
calculated relative resistance value [4]: 4.7
effect on microtubules (immunofluorescence, beta-tubulin antibodies) [5]: caused losses of microtubules
GI50 (NCI 55 human tumor lines): single digit 10^−8 molar levels
percentage of cells in the G2/M phases [6]: increased approximately two-fold

Compound: COc1ccc(N(C)c2nc(C)nc3[nH]ccc23)cc1 [AAG20, N-(4-methoxyphenyl)-N,2-dimethyl-7H-pyrrolo[2,3-d]pyrimidin-4-amine]
cytotoxic activity toward each of the human cancer cell lines tested ([3]; MDA MB 435, SKOV3, SKOV3M6/6): have cytotoxic activity
percentage of cells in the G2/M phases [6]: increased approximately two-fold

Compound: COc1ccc(N(C)c2ncnc3occ(C)c23)cc1 [AAG16, N-(4-methoxyphenyl)-N,5-dimethylfuro[2,3-d]pyrimidin-4-amine]
cytotoxic activity toward each of the human cancer cell lines tested ([3]; MDA MB 435, SKOV3, SKOV3M6/6): have cytotoxic activity
IC50 [4]: 8.4 nM
effect on microtubules (immunofluorescence, beta-tubulin antibodies) [5]: caused losses of microtubules
percentage of cells in the G2/M phases [6]: increased approximately two-fold

IC50 (Wild type HeLa; Homo sapiens, HeLa): 85 ± 5 nM
EC50 (A-10 cells; Rattus norvegicus, A10): 500 ± 2.1 nM
IC50 ([2]; Homo sapiens, HeLa): 180 ± 40 nM
IC50 [1, 8]: 234 ± 20 nM
Compound: COc1ccc(N(C)c2nc(C)nc3c2CCC3)c2ccccc12 [Compound 14]
Rr [2]: 0.47

IC50 (Wild type HeLa; Homo sapiens, HeLa): 4 ± 1 nM
IC50 ([2]; Homo sapiens, HeLa): 4 ± 1 nM
IC50 [1, 8]: 10 nM
IC50 ([1]; MDA-MB-435): 10.2 ± 0.46 nM
Compound: COc1cccc2cc(N(C)c3nc(C)nc4c3CCC4)ccc12 [Compound 13, N,2-dimethyl-N-(5′-methoxynaphthyl-2′-amino)-cyclopenta[d]pyrimidin-4-amine]
Rr [2]: 1.0

Compound: COc1ccc(N(C)c2nc(C)nc3c2CC(C)C3)cc1 (centres unmarked) [Compound 2]
IC50 (tubulin): 25.7 nM

IC50 (Wild type HeLa; Homo sapiens, HeLa): 15 nM
IC50 ([2]; Homo sapiens, HeLa): 14 ± 1 nM
IC50 [1, 8]: 33.7 ± 3.4 nM
Compound: COc1cccc2cc(N(C)c3ncnc4c3CCC4)ccc12 [Compound 12]
Rr [2]: 1.07

IC50 (Wild type HeLa; Homo sapiens, HeLa): > 10000 nM
EC50 (A-10 cells; Rattus norvegicus, A10): > 10000 nM
IC50 ([2]; Homo sapiens, HeLa): > 10000 nM
Compound: COc1ccc2c(N(C)c3nc(C)nc4c3CCC4)cccc2c1 [Compound 11, N,2-dimethyl-N-(6′-methoxynaphthyl-1′-amino)-cyclopenta[d]pyrimidin-4-amine]

Compound: N-(4-methoxy-phenyl)-6-methyl-5H-pyrrolo[3,2-d]pyrimidine-2,4-diamine [AAG12]
cytotoxic activity toward each of the human cancer cell lines tested [3]: have cytotoxic activity
percentage of cells in the G2/M phases [6]: increased approximately two-fold

Compound: COc1ccc(/C=C\c2cc(OC)c(OC)c(OC)c2)cc1O [CA4, combretastatin A-4, reference compound]
IC50 (Wild type HeLa): 1.8 ± 0.4 nM
Inhibition of colchicine binding % Inhibition ± SD [7]: 90 ± 0.2%
EC50 (A-10 cells; A-10 cells): 13 nM
Rr [2]: 0.72
IC50 [2]: 2.5 ± 0.7 nM
IC50 ([1]; MDA-MB-435): 3.4 ± 0.6 nM
